ChEMBL document CHEMBL1201862, “PubChem BioAssay data set” (2004)
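96-well plates; 48 h exposure; 5 concentrations. Endpoints by linear interpolation between flanking doses. Not reached: highest tested concentration assigned. GI50: concentration for 50% inhibition of growth.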 Activity calls are given as the source filed them. No stated cut-off is given here; in the data, active = GI50 up to about 1.1 µM and inactive = higher.

Legend:
Assay in all cases: inhibition of tumour cell growth, NCI panel, 48 h
786-0 = test system: 786-0
A498 = test system: A498
BT-549 = test system: BT-549
HCT-116 = test system: HCT-116
HOP-92 = test system: HOP-92
HT-29 = test system: HT-29
LOX IMVI = test system: LOX IMVI
M14 = test system: M14
MCF7 = test system: MCF7
Malme-3M = test system: Malme-3M
NCI-H226 = test system: NCI-H226
NCI-H23 = test system: NCI-H23
NCI-H460 = test system: NCI-H460
OVCAR-5 = test system: OVCAR-5
OVCAR-8 = test system: OVCAR-8
SF-539 = test system: SF-539
SK-OV-3 = test system: SK-OV-3
T47D = test system: T47D
UACC-257 = test system: UACC-257
UO-31 = test system: UO-31

Measured: GI50

O=C1C2CC(Cl)C(SSC3CC4C(=O)N(SC(Cl)(Cl)C(Cl)Cl)C(=O)C4CC3Cl)CC2C(=O)N1SC(Cl)(Cl)C(Cl)Cl (stereo not given)
inactive: 786-0 1.56 µM | A498 2.81 µM | BT-549 1.7 µM | HCT-116 2.49 µM | HOP-92 1.61 µM | HT-29 1.77 µM | LOX IMVI 1.34 µM | M14 1.21 µM | MCF7 1.67 µM | Malme-3M 1.51 µM | NCI-H226 3.67 µM | NCI-H23 1.66 µM | NCI-H460 2.39 µM | OVCAR-5 17 µM | OVCAR-8 1.45 µM | SF-539 2.32 µM | SK-OV-3 3.39 µM | T47D 2.25 µM | UACC-257 2.02 µM | UO-31 1.94 µM

COc1cc(C=C2C(C)=NN(c3cccc(Cl)c3)C23SCC(=O)N3c2nc3ccccc3s2)ccc1O (stereo not given)
inactive: 786-0 29.5 µM | A498 26.4 µM | BT-549 25.9 µM | HCT-116 24.7 µM | HOP-92 18 µM | HT-29 33 µM | LOX IMVI 27.5 µM | M14 40.3 µM | MCF7 27.7 µM | Malme-3M 16.5 µM | NCI-H226 35.1 µM | NCI-H23 30.1 µM | NCI-H460 35.6 µM | OVCAR-5 46.3 µM | OVCAR-8 20.1 µM | SF-539 24.3 µM | SK-OV-3 21.4 µM | T47D 33.3 µM | UACC-257 32.7 µM | UO-31 30.6 µM
